Consider eleven compounds from patent US10093630B2, “Pyrazole compounds and methods of making and using same” (ABIDE THERAPEUTICS, INC., priority 2014, dated 2018).

Common to all, as to assay: In vitro competitive activity-based protein profiling (gel-based, FP-Rh or HT-01 probe)
Type in all cases: biochemical

The target of experiment [1] is T1, MAGL (Mus musculus, UniProt O35678).
T1 construct: Proteomes (mouse brain membrane fraction or cell lysates); from tissue; host or cells: mouse brain membrane fraction (or cell lysates, not specified)
T1 sequence (O35678 1-303): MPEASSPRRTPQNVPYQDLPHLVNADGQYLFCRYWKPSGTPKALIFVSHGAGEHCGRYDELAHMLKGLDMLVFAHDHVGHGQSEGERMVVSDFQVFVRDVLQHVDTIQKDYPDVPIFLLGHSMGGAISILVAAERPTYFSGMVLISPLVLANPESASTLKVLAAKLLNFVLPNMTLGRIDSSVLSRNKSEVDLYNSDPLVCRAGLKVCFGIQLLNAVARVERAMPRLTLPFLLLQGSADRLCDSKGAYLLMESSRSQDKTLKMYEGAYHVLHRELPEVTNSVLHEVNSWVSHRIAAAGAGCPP
The settings on record: for inhibition at 1 µM: 1 μM inhibitor; for inhibition at 10 µM: 10 μM inhibitor. The method, then:
(§1) In Vitro Competitive Activity-Based Protein Profiling.
(§2) Proteomes (mouse brain membrane fraction or cell lysates) (50 μL, 1.0 mg/mL total protein concentration) were preincubated with varying concentrations of inhibitors at 37° C. After 30 min, FP-Rh or HT-01 ([…], 50 μM in DMSO) was added and the mixture was incubated for another 30 min at 37° C. Reactions were quenched with SDS loading buffer (15 μL—4×) and run on SDS-PAGE. Following gel imaging, serine hydrolase activity was determined by measuring fluorescent intensity of gel bands corresponding to MAGL, ABHD6, FAAH, and PLA2G7 using ImageJ 1.43u software.

In experiment [2] the target is T2, FAAH (Mus musculus, UniProt O08914).
T2 construct: Proteomes (mouse brain membrane fraction or cell lysates); from tissue; host or cells: mouse brain membrane fraction (or cell lysates, not specified)
T2 sequence (O08914 1-579): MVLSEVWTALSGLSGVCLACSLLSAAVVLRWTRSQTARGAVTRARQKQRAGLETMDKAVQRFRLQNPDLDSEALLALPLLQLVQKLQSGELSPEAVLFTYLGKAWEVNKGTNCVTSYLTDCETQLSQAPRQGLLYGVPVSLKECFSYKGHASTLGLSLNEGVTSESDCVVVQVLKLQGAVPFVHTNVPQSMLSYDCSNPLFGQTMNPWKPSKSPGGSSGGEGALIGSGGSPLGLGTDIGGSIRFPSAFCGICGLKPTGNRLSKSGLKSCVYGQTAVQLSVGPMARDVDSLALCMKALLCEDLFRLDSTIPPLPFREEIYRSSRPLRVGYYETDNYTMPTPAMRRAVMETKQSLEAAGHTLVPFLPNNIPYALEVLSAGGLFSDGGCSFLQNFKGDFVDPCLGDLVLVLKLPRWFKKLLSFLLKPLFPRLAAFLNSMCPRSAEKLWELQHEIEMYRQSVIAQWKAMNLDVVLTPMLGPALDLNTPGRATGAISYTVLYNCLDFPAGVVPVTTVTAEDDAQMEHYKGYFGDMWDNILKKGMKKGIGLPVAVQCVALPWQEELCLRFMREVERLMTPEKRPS
To be noted: for inhibition at 1 µM: 1 μM inhibitor, read-out: % Inhibition at 1 μM, B = FAAH; for inhibition at 10 µM: 10 μM inhibitor, read-out: % Inhibition at 10 μM, B = FAAH. The method, then: as §1, §2

Experiment [3] addresses T3, ABHD6 (Mus musculus, UniProt Q8R2Y0).
T3 construct: Proteomes (mouse brain membrane fraction or cell lysates); from tissue; host or cells: mouse brain membrane fraction (or cell lysates, not specified)
T3 sequence (Q8R2Y0 1-336): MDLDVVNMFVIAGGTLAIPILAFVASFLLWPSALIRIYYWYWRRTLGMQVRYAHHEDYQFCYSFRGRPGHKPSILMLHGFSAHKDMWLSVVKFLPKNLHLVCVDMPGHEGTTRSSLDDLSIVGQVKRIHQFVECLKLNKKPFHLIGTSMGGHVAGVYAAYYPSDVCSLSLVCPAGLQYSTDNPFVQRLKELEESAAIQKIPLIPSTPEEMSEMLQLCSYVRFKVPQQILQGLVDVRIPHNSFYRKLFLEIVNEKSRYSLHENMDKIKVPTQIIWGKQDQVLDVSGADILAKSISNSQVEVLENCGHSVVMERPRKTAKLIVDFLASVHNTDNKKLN
To be noted: for inhibition at 1 µM: 1 μM inhibitor, read-out: % Inhibition at 1 μM, C = ABHD6; for inhibition at 10 µM: 10 μM inhibitor, read-out: % Inhibition at 10 μM, C = ABHD6. The method, then:
as §1, §2

The target in experiment [4] is T4, PLA2G7 (Mus musculus, UniProt Q60963).
T4 construct: Proteomes (mouse brain membrane fraction or cell lysates); from tissue; host or cells: mouse brain membrane fraction (or cell lysates, not specified)
T4 sequence (Q60963 22-440): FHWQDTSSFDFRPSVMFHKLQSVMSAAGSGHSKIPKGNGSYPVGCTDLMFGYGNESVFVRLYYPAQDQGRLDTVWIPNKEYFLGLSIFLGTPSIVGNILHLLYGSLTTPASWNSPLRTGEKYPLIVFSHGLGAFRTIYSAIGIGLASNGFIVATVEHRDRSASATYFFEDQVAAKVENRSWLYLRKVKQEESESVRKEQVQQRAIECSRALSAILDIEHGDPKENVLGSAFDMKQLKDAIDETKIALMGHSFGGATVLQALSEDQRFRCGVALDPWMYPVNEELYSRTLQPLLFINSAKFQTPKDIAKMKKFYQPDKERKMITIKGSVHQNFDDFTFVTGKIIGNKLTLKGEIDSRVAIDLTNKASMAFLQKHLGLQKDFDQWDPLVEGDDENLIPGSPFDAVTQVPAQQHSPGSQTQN
To be noted: for inhibition at 1 µM: 1 μM inhibitor, read-out: % Inhibition at 1 μM, D = PLA2G7; for inhibition at 10 µM: 10 μM inhibitor, read-out: % Inhibition at 10 μM, D = PLA2G7. The method, then: as §1, §2

The term inhibition denotes the share of the control response that was lost under treatment. Consider `O=C(N1CCN(Cc2ccc3ccccc3c2)CC1)n1cc(Br)cn1` [Example 13, (4-Bromo-1H-pyrazol-1-yl)(4-(naphthalen-2-ylmethyl)piperazin-1-yl)methanone], for which the inhibition at 1 µM in experiment [1], in experiment [2], in experiment [3] and in experiment [4] was greater than 75% in each case. Further, the inhibition at 10 µM in experiment [1], in experiment [2], in experiment [3] and in experiment [4] was greater than 75% each time.

Consider `O=C(N1CCN(Cc2ccc3ccccc3c2)CC1)n1cc(I)cn1` [Example 14, (4-Iodo-1H-pyrazol-1-yl)(4-(naphthalen-2-ylmethyl)piperazin-1-yl)methanone], for which the inhibition at 1 µM in experiment [1], in experiment [2], in experiment [3] and in experiment [4] was greater than 75% throughout. The inhibition at 10 µM in experiment [1], in experiment [2], in experiment [3] and in experiment [4] was greater than 75% each time.

`COC(=O)c1cnn(C(=O)N2CCN(Cc3ccc4ccccc4c3)CC2)c1` [Example 15, Methyl 1-(4-(naphthalen-2-ylmethyl)piperazine-1-carbonyl)-1H-pyrazole-4-carboxylate]: the inhibition at 1 µM in experiment [1], in experiment [2], in experiment [3] and in experiment [4] was greater than 75% in each case. In addition, the inhibition at 10 µM in experiment [1], in experiment [2], in experiment [3] and in experiment [4] was greater than 75% in each case.

On to `O=C(N1CCN(Cc2ccc(Oc3ccccc3)cc2)CC1)n1cccn1` [Example 16, (4-(4-Phenoxybenzyl)piperazin-1-yl)(1H-pyrazol-1-yl)methanone], for which the inhibition at 1 µM was greater than 75% in experiment [1], less than 25% in experiment [2], greater than 75% in experiment [3] and less than 25% in experiment [4]. The inhibition at 10 µM in experiment [1], in experiment [2], in experiment [3] and in experiment [4] was greater than 75% each time.

In the case of `Cc1cnn(C(=O)N2CCN(Cc3ccc(Oc4ccccc4)cc3)CC2)c1` [Example 17, (4-Methyl-1H-pyrazol-1-yl)(4-(4-phenoxybenzyl)piperazin-1-yl)methanone], the inhibition at 1 µM was greater than 75% in experiment [1], 25 to 75% in experiment [2], greater than 75% in experiment [3] and 25 to 75% in experiment [4]. Besides, the inhibition at 10 µM in experiment [1] was greater than 75%; in experiment [2], greater than 75%; in experiment [3], greater than 75%; in experiment [4] it was less than 25%.

In the case of `N#Cc1cnn(C(=O)N2CCN(Cc3ccc(Oc4ccccc4)cc3)CC2)c1` [Example 18, 1-(4-(4-Phenoxybenzyl)piperazine-1-carbonyl)-1H-pyrazole-4-carbonitrile], the inhibition at 1 µM in experiment [1], in experiment [2], in experiment [3] and in experiment [4] was greater than 75% in each case. Moreover, the inhibition at 10 µM in experiment [1], in experiment [2], in experiment [3] and in experiment [4] was greater than 75% throughout.

Consider `O=C(N1CCN(Cc2ccc(OCc3ccccc3)cc2)CC1)n1cccn1` [Example 19, (4-(4-(Benzyloxy)benzyl)piperazin-1-yl)(1H-pyrazol-1-yl)methanone], for which the inhibition at 1 µM in experiment [1] was 25 to 75%; in experiment [2], greater than 75%; in experiment [3], less than 25%; in experiment [4], less than 25%. The inhibition at 10 µM in experiment [1] is greater than 75%; in experiment [2] it was greater than 75%; in experiment [3], greater than 75%; in experiment [4], less than 25%.

Regarding `Cc1cnn(C(=O)N2CCN(Cc3ccc(OCc4ccccc4)cc3)CC2)c1` [Example 20, (4-(4-(Benzyloxy)benzyl)piperazin-1-yl)(4-methyl-1H-pyrazol-1-yl)methanone], the inhibition at 1 µM in experiment [1] was 25 to 75%; in experiment [2], less than 25%; in experiment [3], 25 to 75%; in experiment [4] it was less than 25%. For the same compound, the inhibition at 10 µM in experiment [1] is greater than 75%; in experiment [2], greater than 75%; in experiment [3], greater than 75%; in experiment [4] it was 25 to 75%.

By IC50 is commonly meant the midpoint of a concentration-inhibition curve. With `N#Cc1cnn(C(=O)N2CCN(Cc3ccc(OCc4ccccc4)cc3)CC2)c1` [Example 21, 1-(4-(4-(Benzyloxy)benzyl)piperazine-1-carbonyl)-1H-pyrazole-4-carbonitrile], the inhibition at 1 µM is greater than 75% in experiment [1], greater than 75% in experiment [2], greater than 75% in experiment [3] and less than 25% in experiment [4]. For the same compound, the inhibition at 10 µM in experiment [1], in experiment [2], in experiment [3] and in experiment [4] was greater than 75% in each case. Besides, the IC50 in experiment [1] (mouse brain membrane fraction or cell lysates, 30 min preincubation at 37° C., read-out: Mouse (IC50 value, nM) MAGL) is less than 100 nM; in experiment [2] (mouse brain membrane fraction or cell lysates, 30 min preincubation at 37° C., read-out: Mouse (IC50 value, nM) FAAH) it was less than 100 nM; in experiment [3] (mouse brain membrane fraction or cell lysates, 30 min preincubation at 37° C., read-out: Mouse (IC50 value, nM) ABHD6) it was less than 100 nM.

Take `O=C(N1CCN(Cc2ccc(-c3ccccc3)cc2)CC1)n1cccn1` [Example 22, (4-([1,1′-Biphenyl]-4-ylmethyl)piperazin-1-yl)(1H-pyrazol-1-yl)methanone]: the inhibition at 1 µM in experiment [1] was greater than 75%; in experiment [2] it was less than 25%; in experiment [3], less than 25%; in experiment [4], less than 25%. Further, the inhibition at 10 µM was greater than 75% in experiment [1], greater than 75% in experiment [2], greater than 75% in experiment [3] and less than 25% in experiment [4].

`Cc1cnn(C(=O)N2CCN(Cc3ccc(-c4ccccc4)cc3)CC2)c1` [Example 23, (4-([1,1′-Biphenyl]-4-ylmethyl)piperazin-1-yl)(4-methyl-1H-pyrazol-1-yl)methanone]: the inhibition at 1 µM in experiment [1] is greater than 75%; in experiment [2], less than 25%; in experiment [3], 25 to 75%; in experiment [4] it was less than 25%. For the same compound, the inhibition at 10 µM in experiment [1] is greater than 75%; in experiment [2] it was 25 to 75%; in experiment [3], greater than 75%; in experiment [4], greater than 75%.
